In patent publication US5534508A, “Cephem compounds and antimicrobial agents” (Katayama Seiyakusyo Co., Ltd., priority 1993, dated 1996):
In brackets after ≈: the same amount, converted by molar mass.

Experiments:
Format in all cases: cell-based
P. aeruginosa AKR17 = experiment: MIC against standard strains (Table 1), P. aeruginosa AKR17; conditions: Pseudomonas aeruginosa, Muller-Hinton agar, overnight 37° C., read-out: MIC (minimum growth inhibitory concentration)
Protocol: (§1) The minimum growth inhibitory concentration (MIC, μg/ml) of the compounds for each of the 25 standard laboratory strains (standard strains) shown in Table 1 was determined in accordance with the standard method of the Japan Chemotherapical Society (Chemotherapy, 29, 76-79 (1981) under "Re-revision of the measuring methods of minimum growth inhibitory concentration (MIC)").
(§2) That is, by using each test strain cultured overnight at 37° C. in a Muller-Hinton broth, there was prepared a bacterial solution with a cell density of 1×10^6 CFU/ml in the same broth. The bacterial solution was inoculated into the Muller-Hinton agar media each containing respectively one test agent (i.e., compound) and, after overnight incubation at 37° C., the minimum concentration that inhibited growth of the bacteria was determined and expressed as MIC.
(§3) Staphylococcus aureus 167 and Staphylococcus aureus 195 used in the test were MRSA. CTM (cefotiam) and FMOX (flomoxef) were used as the control agents.

K. pneuminiae No. 42 = experiment: MIC against standard strains (Table 1), K. pneuminiae No. 42; conditions: Muller-Hinton agar, overnight 37° C., read-out: MIC (minimum growth inhibitory concentration)
Protocol: as §1, §2, §3

M. morganii IFO 3848 = experiment: MIC against standard strains (Table 1), M. morganii IFO 3848; conditions: Morganella morganii, IFO3848, Muller-Hinton agar, overnight 37° C., read-out: MIC (minimum growth inhibitory concentration)
Protocol: as §1, §2, §3

A. calcoaceticos T59 = experiment: MIC against standard strains (Table 1), A. calcoaceticos T59; conditions: Muller-Hinton agar, overnight 37° C., read-out: MIC (minimum growth inhibitory concentration)
Protocol: as §1, §2, §3

S. marcescens No. 16-2 = experiment: MIC against standard strains (Table 1), S. marcescens No. 16-2; conditions: Serratia marcescens, NO.162, Muller-Hinton agar, overnight 37° C., read-out: MIC (minimum growth inhibitory concentration)
Protocol: as §1, §2, §3

P. mirabilis IFO 3849 = experiment: MIC against standard strains (Table 1), P. mirabilis IFO 3849; conditions: Proteus mirabilis, IFO3849, Muller-Hinton agar, overnight 37° C., read-out: MIC (minimum growth inhibitory concentration)
Protocol: as §1, §2, §3

S. marcescens IAM 1184 = experiment: MIC against standard strains (Table 1), S. marcescens IAM 1184; conditions: Serratia marcescens, IAM1184, Muller-Hinton agar, overnight 37° C., read-out: MIC (minimum growth inhibitory concentration)
Protocol: as §1, §2, §3

S. aureus 195 = experiment: MIC against standard strains (Table 1), S. aureus 195 (MRSA); conditions: Staphylococcus aureus, Muller-Hinton agar, overnight 37° C., read-out: MIC (minimum growth inhibitory concentration)
Protocol: as §1, §2, §3

E. coli CSH2(RK1) = experiment: MIC against standard strains (Table 1), E. coli CSH2(RK1); conditions: Escherichia coli, read-out: MIC (minimum growth inhibitory concentration)
Protocol: as §1, §2, §3

B. subtilis ATCC 6633 = experiment: MIC against standard strains (Table 1), B. subtilis ATCC 6633; conditions: Bacillus subtilis, ATCC6633, Muller-Hinton agar, overnight 37° C., read-out: MIC (minimum growth inhibitory concentration)
Protocol: as §1, §2, §3

E. coli CSH2(RE45) = experiment: MIC against standard strains (Table 1), E. coli CSH2(RE45); conditions: Escherichia coli, read-out: MIC (minimum growth inhibitory concentration)
Protocol: as §1, §2, §3

C. freundii ATCC 8090 = experiment: MIC against standard strains (Table 1), C. freundii ATCC 8090; conditions: Citrobacter freundii, ATCC8090, Muller-Hinton agar, overnight 37° C., read-out: MIC (minimum growth inhibitory concentration)
Protocol: as §1, §2, §3

E. cloacae ATCC 13407 = experiment: MIC against standard strains (Table 1), E. cloacae ATCC 13407; conditions: Enterobacter cloacae, ATCC13407, Muller-Hinton agar, overnight 37° C., read-out: MIC (minimum growth inhibitory concentration)
Protocol: as §1, §2, §3

K. pneuminiae IFO 3317 = experiment: MIC against standard strains (Table 1), K. pneuminiae IFO 3317; conditions: Muller-Hinton agar, overnight 37° C., read-out: MIC (minimum growth inhibitory concentration)
Protocol: as §1, §2, §3

E. coli JC-2 = experiment: MIC against standard strains (Table 1), E. coli JC-2; conditions: Escherichia coli, JC2, Muller-Hinton agar, overnight 37° C., read-out: MIC (minimum growth inhibitory concentration)
Protocol: as §1, §2, §3

P. aeruginosa NCTC 10490 = experiment: MIC against standard strains (Table 1), P. aeruginosa NCTC 10490; conditions: Pseudomonas aeruginosa, NCTC10490, Muller-Hinton agar, overnight 37° C., read-out: MIC (minimum growth inhibitory concentration)
Protocol: as §1, §2, §3

P. cepacia CN 9113 = experiment: MIC against standard strains (Table 1), P. cepacia CN 9113; conditions: Burkholderia cepacia, CN9113, Muller-Hinton agar, overnight 37° C., read-out: MIC (minimum growth inhibitory concentration)
Protocol: as §1, §2, §3

A. faecalis ATCC 3750 = experiment: MIC against standard strains (Table 1), A. faecalis ATCC 3750; conditions: Alcaligenes faecalis, ATCC3750, Muller-Hinton agar, overnight 37° C., read-out: MIC (minimum growth inhibitory concentration)
Protocol: as §1, §2, §3

clinically isolated MRSA = experiment: Antibacterial potency against clinically isolated MRSA (47 strains); conditions: Staphylococcus aureus; for MIC50: concentration inhibiting growth of 50% of 47 clinically isolated MRSA strains; for MIC90: concentration inhibiting growth of 90% of 47 clinically isolated MRSA strains
Protocol: A test on the antibacterial potency against clinically isolated MRSA was conducted in the following way.
That is, using 47 strains of clinically isolated MRSA, MIC was determined for each of the test strains in accordance with the standard method of the Japan Chemotherapical Society as in Test Example 1, and the minimum growth inhibitory concentration which inhibited growth of 50% of the strains tested was expressed as MIC50 (μg/ml), and the minimum growth inhibitory concentration which inhibited growth of 90% of the strains tested was expressed as MIC90 (μg/ml).
In this test, FMOX was used as the control agent.

E. cloacae Nek39 = experiment: MIC against standard strains (Table 1), E. cloacae Nek39; conditions: Enterobacter cloacae, Muller-Hinton agar, overnight 37° C., read-out: MIC (minimum growth inhibitory concentration)
Protocol: as §1, §2, §3

S. epidemidis IAM 1296 = experiment: MIC against standard strains (Table 1), S. epidemidis IAM 1296; conditions: Muller-Hinton agar, overnight 37° C., read-out: MIC (minimum growth inhibitory concentration)
Protocol: as §1, §2, §3

M. luteus ATCC 9341 = experiment: MIC against standard strains (Table 1), M. luteus ATCC 9341; conditions: Micrococcus luteus, ATCC9341, Muller-Hinton agar, overnight 37° C., read-out: MIC (minimum growth inhibitory concentration)
Protocol: as §1, §2, §3

S. aureus 209p JC-1 = experiment: MIC against standard strains (Table 1), S. aureus 209p JC-1; conditions: Staphylococcus aureus, Muller-Hinton agar, overnight 37° C., read-out: MIC (minimum growth inhibitory concentration)
Protocol: as §1, §2, §3

S. aureus 167 = experiment: MIC against standard strains (Table 1), S. aureus 167 (MRSA); conditions: Staphylococcus aureus, Muller-Hinton agar, overnight 37° C., read-out: MIC (minimum growth inhibitory concentration)
Protocol: as §1, §2, §3

S. aureus Smith = experiment: MIC against standard strains (Table 1), S. aureus Smith; conditions: Staphylococcus aureus, Muller-Hinton agar, overnight 37° C., read-out: MIC (minimum growth inhibitory concentration)
Protocol: as §1, §2, §3

P. vulugaris OX-19 = experiment: MIC against standard strains (Table 1), P. vulugaris OX-19; conditions: Muller-Hinton agar, overnight 37° C., read-out: MIC (minimum growth inhibitory concentration)
Protocol: as §1, §2, §3

Row | SMILES | MIC (P. aeruginosa AKR17) | MIC (K. pneuminiae No. 42) | MIC (M. morganii IFO 3848) | MIC (A. calcoaceticos T59) | MIC (S. marcescens No. 16-2) | MIC (P. mirabilis IFO 3849) | MIC (S. marcescens IAM 1184) | MIC (S. aureus 195) | MIC (E. coli CSH2(RK1)) | MIC (B. subtilis ATCC 6633) | MIC (E. coli CSH2(RE45)) | MIC (C. freundii ATCC 8090) | MIC (E. cloacae ATCC 13407) | MIC (K. pneuminiae IFO 3317) | MIC (E. coli JC-2) | MIC (P. aeruginosa NCTC 10490) | MIC (P. cepacia CN 9113) | MIC (A. faecalis ATCC 3750) | MIC50 (clinically isolated MRSA) | MIC90 (clinically isolated MRSA) | other results
1 | CO/N=C(\C(=O)N[C@@H]1C(=O)N2C(C(=O)[O-])=C(/C=C/C[n+]3cccc(NC(N)=O)c3)CS[C@H]12)c1csc(N)n1 [Compound 6, 7β-[2-(2-aminothiazol-4-yl)-2-syn-methoxyiminoacetamido]-3-[(E)-3-(3-ureidopyridinio]-1-propenyl]-3-cephem-4-carboxylate] | > 100 µg/mL | 0.1 µg/mL (≈ 0.179 µM) | 0.025 µg/mL (≈ 0.0448 µM) | 6.25 µg/mL (≈ 11.2 µM) | 0.78 µg/mL (≈ 1.4 µM) | 0.025 µg/mL (≈ 0.0448 µM) | 0.025 µg/mL (≈ 0.0448 µM) | 12.5 µg/mL (≈ 22.4 µM) | 0.025 µg/mL (≈ 0.0448 µM) | 0.2 µg/mL (≈ 0.358 µM) | 0.1 µg/mL (≈ 0.179 µM) | 0.025 µg/mL (≈ 0.0448 µM) | 0.2 µg/mL (≈ 0.358 µM) | 0.025 µg/mL (≈ 0.0448 µM) | 0.025 µg/mL (≈ 0.0448 µM) | 0.39 µg/mL (≈ 0.698 µM) | 50 µg/mL (≈ 89.5 µM) | 0.39 µg/mL (≈ 0.698 µM) | 13.8 µg/mL (≈ 24.7 µM) | 67 µg/mL (≈ 120 µM) | MIC (E. cloacae Nek39): 3.13 µg/mL (≈ 5.6 µM); MIC (S. epidemidis IAM 1296): 0.2 µg/mL (≈ 0.358 µM); MIC (M. luteus ATCC 9341): 0.025 µg/mL (≈ 0.0448 µM); MIC (S. aureus 209p JC-1): 0.39 µg/mL (≈ 0.698 µM); MIC (S. aureus 167): 50 µg/mL (≈ 89.5 µM); MIC (S. aureus Smith): 0.39 µg/mL (≈ 0.698 µM); MIC (P. vulugaris OX-19): 0.025 µg/mL (≈ 0.0448 µM)
2 | NC(=O)c1ccc[n+](C/C=C/C2=C(C(=O)[O-])N3C(=O)[C@@H](NC(=O)/C(=N\O)c4csc(N)n4)[C@H]3SC2)c1 [Compound 18, 7β-[2-(2-aminothiazol-4-yl)-2-syn-hydroxyiminoacetamido]-3-[(E)-3-(3-carbamoylpyridinio)-1-propenyl]-3-cephem-4-carboxylate] | > 100 µg/mL | 0.1 µg/mL (≈ 0.189 µM) | 0.05 µg/mL (≈ 0.0944 µM) | 3.13 µg/mL (≈ 5.91 µM) | 12.5 µg/mL (≈ 23.6 µM) | 0.1 µg/mL (≈ 0.189 µM) | 0.05 µg/mL (≈ 0.0944 µM) | 3.13 µg/mL (≈ 5.91 µM) | 0.1 µg/mL (≈ 0.189 µM) | 0.1 µg/mL (≈ 0.189 µM) | 0.05 µg/mL (≈ 0.0944 µM) | 0.05 µg/mL (≈ 0.0944 µM) | 0.1 µg/mL (≈ 0.189 µM) | 0.05 µg/mL (≈ 0.0944 µM) | 0.05 µg/mL (≈ 0.0944 µM) | 1.56 µg/mL (≈ 2.95 µM) | > 100 µg/mL | 0.78 µg/mL (≈ 1.47 µM) | 2.63 µg/mL (≈ 4.97 µM) | 22.2 µg/mL (≈ 41.9 µM) | MIC (E. cloacae Nek39): 6.25 µg/mL (≈ 11.8 µM); MIC (S. epidemidis IAM 1296): 0.05 µg/mL (≈ 0.0944 µM); MIC (M. luteus ATCC 9341): 0.05 µg/mL (≈ 0.0944 µM); MIC (S. aureus 209p JC-1): 0.1 µg/mL (≈ 0.189 µM); MIC (S. aureus 167): 50 µg/mL (≈ 94.4 µM); MIC (S. aureus Smith): 0.1 µg/mL (≈ 0.189 µM); MIC (P. vulugaris OX-19): 0.1 µg/mL (≈ 0.189 µM)
